Experiments:
mTRPV1 = target: T1, mTRPV1 (Mus musculus, UniProt Q704Y3); assay: Whole-cell current recordings, mTRPV1; format: cell-based, murine; conditions: 100 μM HCQ; current activated by 5 μM capsaicin
T1 construct: YFP or GFP; expressed in transfected cells; host or cells: HEK293T
Experimental: To elucidate the specificity of HCQ inhibition on TRPV3, we conducted whole-cell current recordings on other known pruritus-related TRP channels, such as hTRPA1, mTRPV1, mTRPV4, and mTRPM8 (Fig. 3, A and F). […] Because of the relatively larger inhibition of HCQ on mTRPM8 current, we tested the concentration dependence of HCQ on mTRPM8 channels.
HEK293T cells are cultured using Dulbecco's modified Eagle's medium containing 10% fetal bovine serum and 1% penicillin-streptomycin in a cell incubator with 5% CO2 at 37 °C. Plasmids of murine TRPV1, TRPV4, TRPM8, and human TRPV3, TRPA1 are labeled with YFP or GFP as indicators for subsequent electrophysiological recordings. Complementary DNA constructs of ion channels were transiently transfected with Lipofectamine 3000 (Invitrogen). And 12 to 18 h after transient transfection, electrophysiological recordings were performed.
Patch-clamp recordings were carried out with a HEKA EPC10 amplifier controlled by PatchMaster software (HEKA; https://www.heka.com/products/products_main.html#soft_pm) ([36]). Patch pipettes were prepared from borosilicate glass and fire-polished to the resistance of 3 to 8 MΩ by P-97 puller for whole-cell recordings. For single-channel recordings, patch pipettes were fire-polished to a higher resistance of 6 to 10 MΩ. […]

[1] = target: T2, TRPV3 I637 alanine mutation (Homo sapiens, UniProt Q8NET8, I637A); assay: Whole-cell recording of TRPV3 I637 alanine mutant; format: cell-based; conditions: 1 mM 2-APB, ± 80 mV
T2 construct: YFP or GFP; expressed in transfected cells; host or cells: HEK293T
T2 sequence (Q8NET8 1-790 I637A): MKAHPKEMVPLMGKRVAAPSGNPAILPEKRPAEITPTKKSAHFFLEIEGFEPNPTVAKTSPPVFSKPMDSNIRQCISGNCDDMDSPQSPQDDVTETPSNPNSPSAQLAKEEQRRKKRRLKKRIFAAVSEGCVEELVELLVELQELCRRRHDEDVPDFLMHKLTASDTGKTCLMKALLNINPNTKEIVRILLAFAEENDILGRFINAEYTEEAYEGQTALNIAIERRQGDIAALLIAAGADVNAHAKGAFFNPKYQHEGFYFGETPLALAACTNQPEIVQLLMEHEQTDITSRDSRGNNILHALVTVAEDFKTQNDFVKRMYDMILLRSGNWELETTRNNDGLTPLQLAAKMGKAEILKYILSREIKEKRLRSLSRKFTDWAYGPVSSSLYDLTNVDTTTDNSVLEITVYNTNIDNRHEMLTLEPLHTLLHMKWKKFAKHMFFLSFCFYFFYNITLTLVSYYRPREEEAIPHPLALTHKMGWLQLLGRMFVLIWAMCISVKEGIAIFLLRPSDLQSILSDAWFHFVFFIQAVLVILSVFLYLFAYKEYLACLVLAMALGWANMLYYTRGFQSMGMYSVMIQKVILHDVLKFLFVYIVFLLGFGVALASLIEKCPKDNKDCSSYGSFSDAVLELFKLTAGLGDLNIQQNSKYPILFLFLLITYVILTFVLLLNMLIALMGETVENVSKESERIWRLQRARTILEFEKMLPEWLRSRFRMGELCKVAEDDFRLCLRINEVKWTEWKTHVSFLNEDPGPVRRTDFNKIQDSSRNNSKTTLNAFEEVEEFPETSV
Excerpt: As we mentioned above, HCQ may act as a pore blocker of TRPV3. To probe the binding configuration of HCQ to TRPV3, we carried out molecular docking using Rosetta suite (https://rosettacommons.org) ([21]) and validated the docking models with point mutations in TRPV3 (Fig. 4A). […] Furthermore, when we introduced L670A to L591A mutant, we also observed a left shift on the concentration–response curve on this double mutant as compared to L591A mutant (Fig. 4H).
Figure 4 Residues of the pore domain are critical for HCQ inhibition on TRPV3.A, left panel, docking model of HCQ to the pore domain of TRPV3 structure (6uw4). Right panels, top view and side view of the HCQ-binding pocket. B-J, representative whole-cell recording of TRPV3 and mutants in response to 1 mM 2-APB, the mixture of 1 mM 2-APB and concentration gradients of HCQ with the holding potential of ± 80 mV. K, concentration–response curves of HCQ in WT TRPV3 and mutants (n = 3–5 cells). L, quantification of the inhibitory ratio of HCQ (100 μM) on WT, L591A, and N671Q. […]
All data from whole-cell recordings were analyzed in Igor Pro (WaveMetrics). IC50 values were determined by fitting the Hill equation to concentration-response relationships. […]

T1 sequence (Q704Y3 whole entry): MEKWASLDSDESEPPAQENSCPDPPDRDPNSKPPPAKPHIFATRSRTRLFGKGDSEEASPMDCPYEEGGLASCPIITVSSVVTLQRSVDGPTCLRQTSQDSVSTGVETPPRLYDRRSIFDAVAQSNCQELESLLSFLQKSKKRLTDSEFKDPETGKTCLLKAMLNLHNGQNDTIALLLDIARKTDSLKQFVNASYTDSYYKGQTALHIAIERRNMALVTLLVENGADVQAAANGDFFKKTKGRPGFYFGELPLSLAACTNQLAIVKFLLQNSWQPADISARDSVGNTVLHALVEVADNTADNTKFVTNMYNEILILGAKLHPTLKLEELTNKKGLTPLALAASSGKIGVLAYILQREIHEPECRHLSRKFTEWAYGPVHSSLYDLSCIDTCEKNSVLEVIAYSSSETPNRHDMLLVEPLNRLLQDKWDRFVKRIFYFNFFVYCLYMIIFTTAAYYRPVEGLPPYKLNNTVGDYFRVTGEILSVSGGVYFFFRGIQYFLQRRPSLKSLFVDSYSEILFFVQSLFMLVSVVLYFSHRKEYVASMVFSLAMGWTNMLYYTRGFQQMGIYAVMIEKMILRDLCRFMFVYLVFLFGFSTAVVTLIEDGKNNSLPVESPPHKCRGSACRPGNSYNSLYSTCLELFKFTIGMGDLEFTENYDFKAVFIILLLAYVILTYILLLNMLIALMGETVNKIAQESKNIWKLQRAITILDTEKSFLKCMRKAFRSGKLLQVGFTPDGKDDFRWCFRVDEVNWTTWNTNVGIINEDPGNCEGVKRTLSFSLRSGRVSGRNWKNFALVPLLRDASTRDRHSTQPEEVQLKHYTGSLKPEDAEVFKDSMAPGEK

SMILES: CCN(CCO)CCCC(C)Nc1ccnc2cc(Cl)ccc12 (centres unmarked) [HCQ, hydroxychloroquine]
- reduction of mTRPV1 current (mTRPV1): 12.37% ± 5.32%
- IC50 [1]: 140 ± 20 nM
